Article PMC9569163 (Journal of molecular biology, 2020)
Values belong to the substance of their own block, whether it stands above or below them.

What was measured:
[1] = system: TfR; settings: cited from earlier work
[2] = cited from earlier work
[3] = cited from earlier work; remark: listed apart in the source
[4] = target: human TfR (Homo sapiens, UniProt P02786); settings: SPR, 40 nM analyte, HBS-P+ pH 7.4, 56 RUs captured human TfR
Sequence of human TfR (P02786 121-760): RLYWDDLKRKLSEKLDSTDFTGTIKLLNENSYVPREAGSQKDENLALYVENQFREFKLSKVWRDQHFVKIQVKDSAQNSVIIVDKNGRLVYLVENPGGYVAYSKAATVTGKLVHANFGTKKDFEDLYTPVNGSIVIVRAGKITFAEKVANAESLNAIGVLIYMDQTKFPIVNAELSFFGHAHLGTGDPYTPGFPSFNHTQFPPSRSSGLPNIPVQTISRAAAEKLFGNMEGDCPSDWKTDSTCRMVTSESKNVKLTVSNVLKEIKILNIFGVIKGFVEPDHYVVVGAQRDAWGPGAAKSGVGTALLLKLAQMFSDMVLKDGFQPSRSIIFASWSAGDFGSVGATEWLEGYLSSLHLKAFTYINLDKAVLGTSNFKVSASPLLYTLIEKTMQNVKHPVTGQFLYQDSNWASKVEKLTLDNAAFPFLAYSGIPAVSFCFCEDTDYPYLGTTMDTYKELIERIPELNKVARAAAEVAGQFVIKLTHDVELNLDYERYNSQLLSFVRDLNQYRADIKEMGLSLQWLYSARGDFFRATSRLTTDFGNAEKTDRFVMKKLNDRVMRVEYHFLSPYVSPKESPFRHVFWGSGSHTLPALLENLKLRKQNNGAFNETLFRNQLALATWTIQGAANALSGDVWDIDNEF

Substance: transferrin
- endocytosis rate t½ [1]: 3.5 min
- plasma half-life [2]: 40 h

Substance: Angiopep-2
- serum degradation half-life [3]: ~ 20 minutes

- interaction with captured TfR [4]: demonstrated an interaction
Substance: holo-transferrin
